Experimental data reported in ChEMBL document CHEMBL2417511, “Probes for narcotic receptor mediated phenomena. 48. C7- and C8-substituted 5-phenylmorphan opioids from diastereoselective alkylation” (Eur J Med Chem, 2013).

Legend:
Format in all cases: cell-based
[1] = target: Kappa-type opioid receptor (Homo sapiens, UniProt P41145); test: Displacement of [3H]U69,593 from human kappa opioid receptor expressed in CHO cells after 2 hrs by liquid scintillation counting
[2] = target: Delta-type opioid receptor (Homo sapiens, UniProt P41143); test: Displacement of [3H]DADLE from human delta opioid receptor expressed in CHO cells after 2 hrs by liquid scintillation counting
Chain of Delta-type opioid receptor (P41143 whole entry): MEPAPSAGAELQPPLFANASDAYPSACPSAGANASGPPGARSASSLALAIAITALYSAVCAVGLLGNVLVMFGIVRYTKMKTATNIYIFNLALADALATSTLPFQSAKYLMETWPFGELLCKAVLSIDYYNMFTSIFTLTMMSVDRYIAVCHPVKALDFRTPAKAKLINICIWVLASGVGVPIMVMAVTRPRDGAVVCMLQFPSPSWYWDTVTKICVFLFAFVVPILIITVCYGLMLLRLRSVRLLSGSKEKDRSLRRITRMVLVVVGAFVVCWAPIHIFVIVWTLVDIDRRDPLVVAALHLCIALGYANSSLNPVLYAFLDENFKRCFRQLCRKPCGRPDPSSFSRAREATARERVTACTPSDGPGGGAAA

Mu-type opioid receptor = Mu-type opioid receptor (Homo sapiens, UniProt P35372); test: Displacement of [3H]DAMGO from human mu opioid receptor expressed in CHO cells after 2 hrs by liquid scintillation counting
Chain of Mu-type opioid receptor (P35372 whole entry): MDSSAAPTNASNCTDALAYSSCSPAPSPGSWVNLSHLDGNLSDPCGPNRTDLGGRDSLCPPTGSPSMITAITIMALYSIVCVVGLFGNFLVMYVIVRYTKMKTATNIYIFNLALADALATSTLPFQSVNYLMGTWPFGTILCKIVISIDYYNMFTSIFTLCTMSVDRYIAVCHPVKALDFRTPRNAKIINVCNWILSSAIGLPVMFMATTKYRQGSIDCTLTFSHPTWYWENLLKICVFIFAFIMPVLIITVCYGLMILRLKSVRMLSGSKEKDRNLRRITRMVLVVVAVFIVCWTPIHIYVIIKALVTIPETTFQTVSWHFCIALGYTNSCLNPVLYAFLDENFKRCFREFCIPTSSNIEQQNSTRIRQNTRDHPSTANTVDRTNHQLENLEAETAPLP

Chain of Kappa-type opioid receptor (P41145 whole entry): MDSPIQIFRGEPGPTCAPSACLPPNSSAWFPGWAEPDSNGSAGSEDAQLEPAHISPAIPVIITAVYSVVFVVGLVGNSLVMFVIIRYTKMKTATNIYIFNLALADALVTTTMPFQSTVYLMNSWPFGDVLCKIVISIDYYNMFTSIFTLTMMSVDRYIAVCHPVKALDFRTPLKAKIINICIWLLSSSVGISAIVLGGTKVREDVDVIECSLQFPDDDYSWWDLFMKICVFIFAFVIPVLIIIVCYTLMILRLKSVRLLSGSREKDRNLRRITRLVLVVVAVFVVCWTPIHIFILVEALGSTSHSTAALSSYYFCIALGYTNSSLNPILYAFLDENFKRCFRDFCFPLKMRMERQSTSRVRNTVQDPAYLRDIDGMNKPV

## CN1CC[C@]2(c3cccc(O)c3)C[C@H](O)C[C@@H]1C2
[1]
  Ki: 1.23 µM
[2]
  Ki: 1.96 µM
Mu-type opioid receptor
  Ki: 0.022 µM
